Assay results taken from patent US12077636B2 (NISSAN CHEMICAL CORPORATION, priority 2013, dated 2024).

Test: Dissolution rate into the solvent
Type: physicochemical
Conditions: compared with α-type:β-type in a range of 98:2 to 85:15

O=c1n(CC2CO2)c(=O)n(CC2CO2)c(=O)n1CC1CO1 (stereo not shown) [Tris-(2,3-epoxypropyl)-isocyanurate]
dissolution rate for dissolution into the solvent: slower
